Experimental data from patent US10485235B2, “Aryloxypyrimidinyl ethers as herbicides” (FMC Corporation, priority 2015, dated 2019).

Columns and labels:
Format in all cases: in vivo
[1] = system: ducksalad (Heteranthera limosa); test: Test B flooded paddy test, ducksalad; details: 250 g ai/ha, Flood; visual rating after 13 to 15 days; scale 0 to 100, 0 is no effect, 100 is complete control
In short: (§1)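 Visual injury scored 0 (no effect) to 100 (complete control) relative to controls 13-15 days after treatment in greenhouse. Treatment: test compound added into paddy water of pots flooded 3 cm over soil, holding 2-leaf-stage plants; water level kept constant.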

[2] = system: blackgrass (Alopecurus myosuroides); test: Test A postemergence, blackgrass; details: postemergence, 0 to 100 scale, 0 is no effect, 100 is complete control, approximately 10 days
In short: (§2)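 Planted seeds in loam soil mixed with sand; sprayed soil directly (pre). Grew seedlings to one- to two-leaf stage, 2–10 cm; sprayed foliage (post). Held in greenhouse ~10 days. Rated injury visually vs untreated controls, 0–100.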

[3] = system: ragweed (common ragweed, Ambrosia elatior); test: Test A postemergence, ragweed; details: postemergence, 0 to 100 scale, 0 is no effect, 100 is complete control, approximately 10 days
In short: as §2

[4] = system: foxtail, giant (giant foxtail, Setaria faberii); test: Test A postemergence, giant foxtail; details: postemergence, 0 to 100 scale, 0 is no effect, 100 is complete control, approximately 10 days
In short: as §2

kochia (Kochia scoparia) [5] = test: Test A preemergence, kochia; details: Preemergence, 0 to 100 scale (0 no effect, 100 complete control)
In short: as §2

[6] = system: galium (catchweed bedstraw, Galium aparine); test: Test A postemergence, galium; details: postemergence, 0 to 100 scale, 0 is no effect, 100 is complete control, approximately 10 days
In short: as §2

[7] = system: ryegrass, Italian (Italian ryegrass, Lolium multiflorum); test: Test A preemergence, Italian ryegrass; details: Preemergence, 0 to 100 scale (0 no effect, 100 complete control)
In short: as §2

[8] = system: ragweed (common ragweed, Ambrosia elatior); test: Test A preemergence, ragweed; details: Preemergence, 0 to 100 scale (0 no effect, 100 complete control)
In short: as §2

rice (Oryza sativa) = test: Test B flooded paddy test, rice; details: 250 g ai/ha, Flood; visual rating after 13 to 15 days; scale 0 to 100, 0 is no effect, 100 is complete control
In short: as §1

[9] = system: sedge, umbrella (small-flower umbrella sedge, Cyperus difformis); test: Test B flooded paddy test, umbrella sedge; details: 250 g ai/ha, Flood; visual rating after 13 to 15 days; scale 0 to 100, 0 is no effect, 100 is complete control
In short: as §1

[10] = system: ryegrass, Italian (Italian ryegrass, Lolium multiflorum); test: Test A postemergence, Italian ryegrass; details: postemergence, 0 to 100 scale, 0 is no effect, 100 is complete control, approximately 10 days
In short: as §2

kochia (Kochia scoparia) [11] = test: Test A postemergence, kochia; details: postemergence, 0 to 100 scale, 0 is no effect, 100 is complete control, approximately 10 days
In short: as §2

[12] = system: foxtail, giant (giant foxtail, Setaria faberii); test: Test A preemergence, giant foxtail; details: Preemergence, 0 to 100 scale (0 no effect, 100 complete control)
In short: as §2

[13] = system: pigweed (Amaranthus retroflexus); test: Test A preemergence, pigweed; details: Preemergence, 0 to 100 scale (0 no effect, 100 complete control)
In short: as §2

[14] = system: wheat (Triticum aestivum); test: Test A postemergence, wheat; details: postemergence, 0 to 100 scale, 0 is no effect, 100 is complete control, approximately 10 days
In short: as §2

corn (Zea mays) = test: Test A postemergence, corn; details: postemergence, 0 to 100 scale, 0 is no effect, 100 is complete control, approximately 10 days
In short: as §2

[15] = system: barnyardgrass (Echinochloa crus-galli); test: Test A postemergence, barnyardgrass; details: postemergence, 0 to 100 scale, 0 is no effect, 100 is complete control, approximately 10 days
In short: as §2

[16] = system: pigweed (Amaranthus retroflexus); test: Test A postemergence, pigweed; details: postemergence, 0 to 100 scale, 0 is no effect, 100 is complete control, approximately 10 days
In short: as §2

[17] = system: barnyardgrass (Echinochloa crus-galli); test: Test A preemergence, barnyardgrass; details: Preemergence, 0 to 100 scale (0 no effect, 100 complete control)
In short: as §2

[18] = system: barnyardgrass (Echinochloa crus-galli); test: Test B flooded paddy test, barnyardgrass; details: 250 g ai/ha, Flood; visual rating after 13 to 15 days; scale 0 to 100, 0 is no effect, 100 is complete control
In short: as §1

Structure (SMILES)	Plant response rating, Ducksalad [1]	Plant response rating, Blackgrass ([2]; 31 g ai/ha)	Plant response rating, Blackgrass ([2]; 125 g ai/ha)	Plant response rating, Ragweed ([3]; 31 g ai/ha)	Plant response rating, Ragweed ([3]; 125 g ai/ha)	Plant response rating, Foxtail, Giant ([4]; 31 g ai/ha)	Plant response rating, Foxtail, Giant ([4]; 125 g ai/ha)	Plant response rating, Kochia (kochia (Kochia scoparia) [5]; 31 g ai/ha)	Plant response rating, Kochia (kochia (Kochia scoparia) [5]; 125 g ai/ha)	Plant response rating, Galium ([6]; 31 g ai/ha)	Plant response rating, Galium ([6]; 125 g ai/ha)	Plant response rating, Ryegrass, Italian ([7]; 31 g ai/ha)	Plant response rating, Ryegrass, Italian ([7]; 125 g ai/ha)	Plant response rating, Ragweed ([8]; 31 g ai/ha)	Plant response rating, Ragweed ([8]; 125 g ai/ha)	Plant response rating, Rice (rice (Oryza sativa))	Plant response rating, Sedge, Umbrella [9]	Plant response rating, Ryegrass, Italian ([10]; 31 g ai/ha)	Plant response rating, Ryegrass, Italian ([10]; 125 g ai/ha)	Plant response rating, Kochia (kochia (Kochia scoparia) [11]; 31 g ai/ha)	further results
FC(F)(F)/C=C/COc1c(Cl)cccc1Oc1ncc(Cl)cn1 [Compound 47]	85	10	50	0	10	20	70	0	80	50	80	0	10	0	0	0	100	0	10	50	Plant response rating, Kochia (kochia (Kochia scoparia) [11]; 125 g ai/ha): 90; Plant response rating, Foxtail, Giant ([12]; 31 g ai/ha): 30; Plant response rating, Foxtail, Giant ([12]; 125 g ai/ha): 100; Plant response rating, Pigweed ([13]; 31 g ai/ha): 0; Plant response rating, Pigweed ([13]; 125 g ai/ha): 60; Plant response rating, Wheat ([14]; 31 g ai/ha): 0; Plant response rating, Wheat ([14]; 125 g ai/ha): 0; Plant response rating, Corn (corn (Zea mays); 31 g ai/ha): 10; Plant response rating, Corn (corn (Zea mays); 125 g ai/ha): 20; Plant response rating, Barnyardgrass ([15]; 31 g ai/ha): 10; Plant response rating, Barnyardgrass ([15]; 125 g ai/ha): 40; Plant response rating, Pigweed ([16]; 31 g ai/ha): 20; Plant response rating, Pigweed ([16]; 125 g ai/ha): 90; Plant response rating, Barnyardgrass ([17]; 31 g ai/ha): 10; Plant response rating, Barnyardgrass ([17]; 125 g ai/ha): 50; Plant response rating, Barnyardgrass [18]: 0
FC(F)(F)CCCOc1c(Cl)cccc1Oc1ncc(Cl)cn1 [Compound 46]	98	0	40	0	10	20	60	0	80	30	70	0	10	0	0	0	100	0	10	50	Plant response rating, Kochia (kochia (Kochia scoparia) [11]; 125 g ai/ha): 80; Plant response rating, Foxtail, Giant ([12]; 31 g ai/ha): 40; Plant response rating, Foxtail, Giant ([12]; 125 g ai/ha): 100; Plant response rating, Pigweed ([13]; 31 g ai/ha): 0; Plant response rating, Pigweed ([13]; 125 g ai/ha): 100; Plant response rating, Wheat ([14]; 31 g ai/ha): 0; Plant response rating, Wheat ([14]; 125 g ai/ha): 0; Plant response rating, Corn (corn (Zea mays); 31 g ai/ha): 10; Plant response rating, Corn (corn (Zea mays); 125 g ai/ha): 20; Plant response rating, Barnyardgrass ([15]; 31 g ai/ha): 0; Plant response rating, Barnyardgrass ([15]; 125 g ai/ha): 30; Plant response rating, Pigweed ([16]; 31 g ai/ha): 50; Plant response rating, Pigweed ([16]; 125 g ai/ha): 90; Plant response rating, Barnyardgrass ([17]; 31 g ai/ha): 10; Plant response rating, Barnyardgrass ([17]; 125 g ai/ha): 80; Plant response rating, Barnyardgrass [18]: 0
FC(F)(F)CCCOc1c(Br)cccc1Oc1ncc(Cl)cn1 [Compound 31]	75	20	40	0	10	20	50	0	70	40	90	0	40	0	10	25	100	10	50	90	Plant response rating, Kochia (kochia (Kochia scoparia) [11]; 125 g ai/ha): 100; Plant response rating, Foxtail, Giant ([12]; 31 g ai/ha): 40; Plant response rating, Foxtail, Giant ([12]; 125 g ai/ha): 100; Plant response rating, Pigweed ([13]; 31 g ai/ha): 70; Plant response rating, Pigweed ([13]; 125 g ai/ha): 100; Plant response rating, Wheat ([14]; 31 g ai/ha): 0; Plant response rating, Wheat ([14]; 125 g ai/ha): 10; Plant response rating, Corn (corn (Zea mays); 31 g ai/ha): 10; Plant response rating, Corn (corn (Zea mays); 125 g ai/ha): 20; Plant response rating, Barnyardgrass ([15]; 31 g ai/ha): 20; Plant response rating, Barnyardgrass ([15]; 125 g ai/ha): 70; Plant response rating, Pigweed ([16]; 31 g ai/ha): 80; Plant response rating, Pigweed ([16]; 125 g ai/ha): 100; Plant response rating, Barnyardgrass ([17]; 31 g ai/ha): 10; Plant response rating, Barnyardgrass ([17]; 125 g ai/ha): 60; Plant response rating, Barnyardgrass [18]: 25
